We go through four compounds from patent US20250352544A1, “TREATMENT OF MUSCLE ATROPHY USING GSK-3 INHIBITORS” (Technion Research & Development Foundation Limited, priority 2024, published 2025).

“Also recorded” adds a separate entry of the source. Non-standard residues stand in square brackets, D forms with d. *: point of attachment. Myristoyl = CCCCCCCCCCCCCC(=O)*; pS = N[C@@H](COP(=O)(O)O)C(=O)O

Assay [1] has as its system fasting (atrophy-induced) mice, Tibialis Anterior (TA) muscle. In words: Fasting-induced muscle atrophy in mice treated with GSK-3 inhibitors. The following applies: for TA muscle weight (muscle atrophy): i.p. 0.5 mg CHIR98014 or 0.3 mg L803mts per mouse on day 1 and day 2 of fasting, vs fed and fasting vehicle controls (FIG. 3). The assay is classed as in vivo. An excerpt: All animal experiments were consistent with Israel Council on Animal Experiments guidelines and the Institutional Regulations of Animal Care and Use. Specialized personnel provided mice care in the institutional animal facility. In fasting (2 d) experiments, food was removed from cages on the fifth day after electroporation.
Mice were divided into two groups: those subjected to fasting to induce muscle atrophy, and those that were fed and used as fed control. Mice of the fasting group were injected intraperitoneally with either CHIR98014 or L803mts to examine their effect on muscle wasting. Control groups (Fed, fasting) were injected with vehicle (3% DMSO in saline). Each mouse (27-30 grams body weight) was injected with 0.3 mg L803mts or 0.5 mg CHIR98014, twice: on the first and then on the second day of fasting. Whole Tibilis anterior (TA) muscles were then collected and the weight loss in these samples over 2 days was measured.
Tideglusib (4.35 mg/ml) was mixed with 26% PEG400 (v/v), 15% Cremophor EL (v/v), and 59% ddH2O (v/v), to a total volume of 2.3 ml. Each mouse received 200 microliter (μL) (0.87 mg Tideglusib) of the solution on the first day of fasting, and 150 μL (0.65 mg Tideglusib) on the second day.
Then, the efficacy of CHIR99021, another exemplary ATP-competitive GSK3β inhibitor, was evaluated. To this, fasting (atrophy-induced) mice were injected intraperitoneally with 16 mg/kg CHIR99021 (200 μL per mouse) on day 1 and on day 2 of fasting. At the end of the experiment, mice were sacrificed, and their tibialis anterior (TA) muscles were dissected and weighed, in comparison with fed mice and untreated fasting (atrophy-induced) mice.

Assay [2] concerns GSK-3. The following applies: background statement; cited from earlier work.

Turning to “Myr-Gly-Lys-Glu-Ala-Pro-Pro-Ala-Pro-Pro-Gln-{Ser(p)}-Pro-NH2 (Myristoyl-GKEAPPAPPQ[pS]P-NH2; SMILES CCCCCCCCCCCCCC(=O)NCC(=O)N[C@@H](CCCCN)C(=O)N[C@@H](CCC(=O)O)C(=O)N[C@@H](C)C(=O)N1CCC[C@H]1C(=O)N1CCC[C@H]1C(=O)N[C@@H](C)C(=O)N1CCC[C@H]1C(=O)N1CCC[C@H]1C(=O)N[C@@H](CCC(N)=O)C(=O)N[C@@H](COP(=O)(O)O)C(=O)N1CCC[C@H]1C(N)=O) [L803-mts]”, the “TA muscle weight (muscle atrophy)” value in assay [1] (2-day fasting mice) is recorded as “attenuation in muscle weight; also recorded: inferior activity to that of CHIR98014”.

As to `O=c1sn(-c2cccc3ccccc23)c(=O)n1Cc1ccccc1` [Tideglusib], the “effect on muscle atrophy (body weight and TA muscle to body weight ratio)” value in assay [1] (2-day fasting mice, Tideglusib via gavage, 0.87 mg on day 1 and 0.65 mg on day 2 (20-30 mg/kg) (FIGS. 4A-B)) is “minimal effect on preventing muscle atrophy; also recorded: minor effect in treating muscle atrophy”.

`Cc1c[nH]c(-c2cnc(NCCNc3ccc(C#N)cn3)nc2-c2ccc(Cl)cc2Cl)n1` [CHIR99021]: the “GSK-3 inhibition, potency and selectivity” value in assay [2] is “highly potent and selective inhibitors of GSK-3”. Moreover, the “TA muscle weight (muscle loss)” value in assay [1] (fasting mice, CHIR99021 16 mg/kg i.p. on day 1 and day 2 of fasting, data not shown, 16 mg/kg) is recorded as “did not mitigate this muscle loss; also recorded: inferior activity”.

With `Nc1nc(NCCNc2ncc(-n3ccnc3)c(-c3ccc(Cl)cc3Cl)n2)ccc1[N+](=O)[O-]` [CHIR98014], the “GSK-3 inhibition, potency and selectivity” value in assay [2] is “highly potent and selective inhibitors of GSK-3”. For the same compound, in assay [1] (2-day fasting mice), the “TA muscle weight (muscle atrophy)” value is “no reduction in muscle weight compared to control; also recorded: completely prevented the reduction in muscle mass”.
